Activity calls are given as the source filed them. The calls are words filed in the database; no cut-off is given here.

Assay [1] deals with T1, L-methionine gamma-lyase (Fusobacterium nucleatum subsp. nucleatum) (UniProt Q8RDT4).
T1 sequence (whole entry): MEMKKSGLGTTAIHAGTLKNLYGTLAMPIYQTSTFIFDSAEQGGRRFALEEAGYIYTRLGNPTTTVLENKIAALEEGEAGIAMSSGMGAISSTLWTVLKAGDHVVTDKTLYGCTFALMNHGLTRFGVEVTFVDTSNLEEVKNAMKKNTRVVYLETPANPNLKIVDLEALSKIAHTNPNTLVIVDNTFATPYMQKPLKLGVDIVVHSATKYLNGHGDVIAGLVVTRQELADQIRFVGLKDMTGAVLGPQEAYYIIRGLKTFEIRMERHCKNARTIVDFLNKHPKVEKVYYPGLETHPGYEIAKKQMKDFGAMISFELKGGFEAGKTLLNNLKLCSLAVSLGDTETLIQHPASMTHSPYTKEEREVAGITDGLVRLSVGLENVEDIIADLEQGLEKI
Briefly: Inhibition of Fusobacterium nucleatum ATCC 25586 recombinant wild type MGL expressed in Escherichia coli BL21 (DE3) assessed as decrease in signal intensity by 19F NMR based competition assay relative to control. The arrangement: concentration or dose not given beside the values.

The target of assay [2] is T1, L-methionine gamma-lyase (Fusobacterium nucleatum subsp. nucleatum). Briefly: Inhibition of Fusobacterium nucleatum ATCC 25586 recombinant wild type MGL expressed in Escherichia coli BL21 (DE3) assessed as formation of 2-ketobutyrate using L-methionine as substrate by enzymatic assay. Conditions: concentration not given here. More on the design: concentration or dose not given beside the values.

The test system of assay [3] is Fusobacterium nucleatum. Briefly: Inhibition of Fusobacterium nucleatum ATCC 25586 recombinant MGL Y56F mutant expressed in Escherichia coli BL21 (DE3) assessed as decrease in signal intensity by measuring recovery ratio by 19F NMR based competition assay relative to wild type. The arrangement: concentration or dose not given beside the values.
Assay [4] concerns Fusobacterium nucleatum. In words: Inhibition of Fusobacterium nucleatum ATCC 25586 recombinant MGL R58A mutant expressed in Escherichia coli BL21 (DE3) assessed as decrease in signal intensity by measuring recovery ratio by 19F NMR based competition assay relative to wild type. The arrangement: scale not given: the % may be the effect or the level left.
Assay [5] has as its system Fusobacterium nucleatum. Briefly: Inhibition of Fusobacterium nucleatum ATCC 25586 recombinant MGL R58K mutant expressed in Escherichia coli BL21 (DE3) assessed as decrease in signal intensity by measuring recovery ratio by 19F NMR based competition assay relative to wild type. The arrangement: scale not given: the % may be the effect or the level left.
Assay [6] relates to Fusobacterium nucleatum. Briefly: Inhibition of Fusobacterium nucleatum ATCC 25586 recombinant MGL Y111F mutant expressed in Escherichia coli BL21 (DE3) assessed as decrease in signal intensity by measuring recovery ratio by 19F NMR based competition assay relative to wild type. More on the design: concentration or dose not given beside the values.
The subject of assay [7] is Fusobacterium nucleatum. Briefly: Inhibition of Fusobacterium nucleatum ATCC 25586 recombinant MGL C113S mutant expressed in Escherichia coli BL21 (DE3) assessed as decrease in signal intensity by measuring recovery ratio by 19F NMR based competition assay relative to wild type. More on the design: scale not given: the % may be the effect or the level left.
Assay [8] deals with Fusobacterium nucleatum. In words: Inhibition of Fusobacterium nucleatum ATCC 25586 recombinant MGL K238A mutant expressed in Escherichia coli BL21 (DE3) assessed as decrease in signal intensity by measuring recovery ratio by 19F NMR based competition assay relative to wild type. The arrangement: concentration or dose not given beside the values.
The subject of assay [9] is Fusobacterium nucleatum. In words: Inhibition of Fusobacterium nucleatum ATCC 25586 recombinant MGL R373A mutant expressed in Escherichia coli BL21 (DE3) assessed as decrease in signal intensity by measuring recovery ratio by 19F NMR based competition assay relative to wild type. The arrangement: scale not given: the % may be the effect or the level left.
Assay [10] concerns Fusobacterium nucleatum. Briefly: Inhibition of Fusobacterium nucleatum ATCC 25586 recombinant MGL R373K mutant expressed in Escherichia coli BL21 (DE3) assessed as decrease in signal intensity by measuring recovery ratio by 19F NMR based competition assay relative to wild type. The arrangement: concentration or dose not given beside the values.

Regarding `CCOC(=O)c1nc(-c2ccccc2F)no1`, the Activity turned out to be 82% in assay [1]; 80% in [3]; 50% in assay [4]; 50% in assay [5]; 50% in assay [6]; 80% in assay [9]. The inhibition (as a rule, the relative decrease from the control value, in per cent) in [2] was 13.3%. Further, the outcome in assay [7], in assay [8] and in assay [10] was Active.
In the case of `CC(C)(C)OC(=O)N1CCC(CN)(c2ccc(F)cc2)CC1`, the Activity amounted to 20% in assay [1]; 80% in assay [3]; 50% in assay [4]; 50% in assay [5]; 50% in [6]; 50% in [8]. The inhibition in assay [2] is 12.9%. Besides, the outcome in assay [7], in assay [9] and in assay [10] was Active.
For the compound `CC(C)(C)OC(=O)N1CCC(CN)(Cc2ccccc2C(F)(F)F)CC1`, the Activity in assay [1] turned out to be 85%; in assay [3] it was 80%; in assay [4], 50%; in assay [5], 80%; in assay [7], 80%. Besides, in assay [2], the inhibition was determined as 56.5%. The result in [6], in assay [8], in [9] and in [10] was Active.
As for `O=C(O)c1ccnc(OC(F)(F)F)c1`, the Activity in assay [1] amounted to 76%; in [3], 80%; in [4], 80%; in [5], 80%; in assay [6] it was 50%; in assay [8], 50%. Further, the Activity in assay [9] amounted to 80%; in assay [10], 50%. The inhibition in [2] turned out to be 22.3%. Besides, the outcome in assay [7] was Active.
As for `O=C(O)c1cc(OC(F)(F)F)ccn1`, the Activity came out at 4% in [1]; 80% in [3]; 80% in assay [4]; 80% in assay [5]; 50% in [6]; 80% in assay [9]. For the same compound, in [2], the inhibition was -6.8%. Further, the result in assay [7], in assay [8] and in [10] was Active.
Take `CC(C)(C)OC(=O)N[C@H]1CC[C@H](N2Cc3cccc(F)c3C2=O)CC1`: the results for the Activity in assay [1] and in [3] were 100% and 50%, respectively. Besides, in [2], the inhibition amounted to 53.7%. Further, the outcome in assay [4], in assay [5], in assay [6], in [7], in assay [8] and in assay [9] was Active. In addition, the outcome in assay [10] was Active.
In the case of `CC(C)(C)OC(=O)N1CCC(CN)(c2ccccc2F)CC1`, the Activity in [1] amounted to 77%; in [3], 80%; in assay [4] it was 50%; in assay [5] it was 50%; in [7], 50%. Moreover, the inhibition in assay [2] was 17.2%. Further, the result in assay [6], in assay [8] and in assay [10] was Active. For the same compound, the outcome in assay [9] was inactive.
Consider `CC(C)(C)OC(=O)N1CCC(CN)(Cc2ccc(F)cc2)CC1`, for which the Activity came out at 70% in [1], 80% in assay [3], 50% in assay [5] and 50% in [7]. Further, the inhibition in [2] is 27.7%. For the same compound, the result in assay [4], in [9] and in [10] was Active. Moreover, the outcome in [6] and in assay [8] was inactive.
Take `O=C(O)c1cnn(-c2ccc(F)cc2)c1`: the Activity in [1] came to 69%; in assay [3], 80%; in [4], 80%; in assay [5], 50%; in assay [6], 80%; in assay [8], 50%. For the same compound, the Activity in assay [9] turned out to be 80%. The inhibition in assay [2] is -0.6%. In addition, the outcome in assay [7] and in [10] was Active.
For the compound `O=C(O)c1cnc(OCC(F)(F)F)cn1`, the Activity in [1] is 49%; in [3], 80%; in [4], 80%; in [5], 80%; in assay [8] it was 50%; in assay [9], 80%. In assay [2], the inhibition is 4.4%. For the same compound, the outcome in assay [6], in [7] and in assay [10] was Active.
Take `CC(C)(CC(=O)O)c1ccc(C(F)(F)F)cc1`: the Activity in assay [1] was 62%; in assay [3], 80%; in [4], 80%; in [5], 80%; in [6], 80%; in [8], 50%. For the same compound, the Activity in assay [9] was found to be 50%. In assay [2], the inhibition is 11.3%. The result in assay [7] and in assay [10] was Active.
As to `COCCOc1ccc(C(=O)O)cc1C(F)(F)F`, the Activity is 67% in [1]; 80% in [3]; 80% in [4]; 80% in assay [5]; 80% in assay [6]; 50% in assay [7]. The figures for the Activity in [9] and in assay [10] were 80% and 50%, respectively. Besides, in assay [2], the inhibition was found to be 16.2%. The result in assay [8] was Active.
Take `O=C(O)c1cc(C(F)(F)F)nn1Cc1ccccc1`: the Activity in assay [1] is 41%; in [3], 50%; in assay [4], 80%; in assay [5], 80%; in assay [6] it was 50%; in assay [9] it was 50%. Also, in [10], the Activity was 50%. Further, the inhibition in assay [2] was 14.5%. Further, the result in assay [7] was inactive. In addition, in [8], the result was Active.
`CC(C)(C)OC(=O)N[C@H]1CC[C@H](N2Cc3ccc(F)cc3C2=O)CC1`: the Activity in assay [1] is 70%; in assay [3], 50%; in [5], 50%; in assay [7], 50%. The inhibition in assay [2] is -1.2%. The result in assay [4], in assay [6], in [8], in [9] and in [10] was Active.
As to `O=C(O)c1cn(-c2ccc(C(F)(F)F)cc2)cn1`, the Activity in [1] came out at 87%; in assay [3], 80%; in [4], 50%; in assay [5] it was 80%; in assay [6], 50%; in [9] it was 80%. Also, the inhibition in assay [2] was 45.3%. Further, the result in assay [7], in assay [8] and in [10] was Active.
As to `CC(C)(Cc1ccc(C(F)(F)F)cc1)C(=O)O`, the Activity was found to be 55% in assay [1]; 80% in [3]; 80% in assay [4]; 50% in assay [5]; 80% in assay [6]; 80% in [8]. In [9], the Activity turned out to be 50%. Also, in assay [2], the inhibition was determined as 8.3%. Further, the outcome in [7] was Active. In addition, the outcome in assay [10] was inactive.
On to `O=C(O)c1ccc(OCC(F)(F)F)cn1`, for which the Activity in assay [1] was 40%; in assay [3], 80%; in assay [4] it was 80%; in assay [5], 80%; in assay [6], 80%; in [7], 80%. The Activity was determined as 50% in assay [8] and 80% in assay [9]. In assay [2], the inhibition came out at 15%. The outcome in [10] was Active.

The record behind these values is ChEMBL document CHEMBL4837259, “Comprehensive Approach of 19F Nuclear Magnetic Resonance, Enzymatic, and In Silico Methods for Site-Specific Hit Selection and Validation of Fragment Molecules that Inhibit Methionine γ-Lyase Activity” (J Med Chem, 2021).
